# In ChEMBL document CHEMBL5244219, “Recent developments of quinolone-based derivatives and their activities against Escherichia coli” (Eur J Med Chem, 2018):
# System: Escherichia coli
# Assay: Antibacterial activity against Escherichia coli NCDC 134 assessed as bacterial growth inhibition
# Type: functional
row,SMILES,MIC [µg/mL]
1,COc1ccc(/C=N/NC(=O)c2cn(C3CC3)c3cc(N4CCNCC4)c(F)cc3c2=O)cc1O,> 64
2,COc1c(N2CCN(CC(=O)Nc3nc4ccc(F)cc4s3)C(C)C2)c(F)cc2c(=O)c(C(=O)O)cn(C3CC3)c12 (stereo not drawn),6
3,CCn1cc(C(=O)O)c(=O)c2cc(F)c(N3CCN(CC(=O)Nc4nc5ccc(Cl)cc5s4)CC3)cc21,6
4,CCn1cc(C(=O)O)c(=O)c2cc(F)c(N3CCN(CC(=O)Nc4nc5c(Cl)ccc(Cl)c5s4)CC3)cc21,6
5,O=C(N/N=C/c1ccccc1)c1cn(C2CC2)c2cc(N3CCNCC3)c(F)cc2c1=O,> 64
6,O=C(CN1CCN(c2cc3c(cc2F)c(=O)c(C(=O)O)cn3C2CC2)CC1)Nc1nc2ccc(F)cc2s1,6
7,COc1ccc(/C=N/NC(=O)c2cn(C3CC3)c3cc(N/N=C/c4ccc(OC)cc4)c(F)cc3c2=O)cc1,> 64
8,CC(C)NCc1cn(-c2cc3c(cc2F)c(=O)c(C(=O)NO)cn3C2CC2)nn1,> 64
9,COc1cc(/C=N/NC(=O)c2cn(C3CC3)c3cc(N4CCNCC4)c(F)cc3c2=O)cc(OC)c1OC,> 64
10,O=C(N/N=C/c1ccc([N+](=O)[O-])cc1)c1cn(C2CC2)c2cc(N/N=C/c3ccc([N+](=O)[O-])cc3)c(F)cc2c1=O,> 64
11,O=C(CN1CCN(c2cc3c(cc2F)c(=O)c(C(=O)O)cn3C2CC2)CC1)Nc1nc2ccc(Cl)cc2s1,6
12,COc1ccc(/C=N/NC(=O)c2cn(C3CC3)c3cc(N4CCNCC4)c(F)cc3c2=O)cc1,> 64
13,COc1c(N2CCN(CC(=O)Nc3nc4ccc(Cl)cc4s3)C(C)C2)c(F)cc2c(=O)c(C(=O)O)cn(C3CC3)c12 (stereo not drawn),6
14,O=C(N/N=C/c1ccc(F)cc1)c1cn(C2CC2)c2cc(N/N=C/c3ccc(F)cc3)c(F)cc2c1=O,> 64
15,CCn1cc(C(=O)O)c(=O)c2cc(F)c(N3CCN(CC(=O)Nc4nc5ccc(F)cc5s4)CC3)cc21,6
16,CN(C)Cc1cn(-c2cc3c(cc2F)c(=O)c(C(=O)NO)cn3C2CC2)nn1,> 64
17,O=C(CN1CCN(c2cc3c(cc2F)c(=O)c(C(=O)O)cn3C2CC2)CC1)Nc1nc2ccc([N+](=O)[O-])cc2s1,6
18,O=C(N/N=C/c1ccccc1)c1cn(C2CC2)c2cc(N/N=C/c3ccccc3)c(F)cc2c1=O,> 64
19,COc1ccc(/C=N/NC(=O)c2cn(C3CC3)c3cc(N/N=C/c4ccc(OC)c(O)c4)c(F)cc3c2=O)cc1O,> 64

row,SMILES,MIC [µg/mL]
1,O=C(N/N=C/c1ccc2c(c1)OCO2)c1cn(C2CC2)c2cc(N/N=C/c3ccc4c(c3)OCO4)c(F)cc2c1=O,> 64
2,O=C(N/N=C/c1ccccc1O)c1cn(C2CC2)c2cc(N/N=C/c3ccccc3O)c(F)cc2c1=O,> 64
3,O=C(N/N=C/c1ccc2c(c1)OCO2)c1cn(C2CC2)c2cc(N3CCNCC3)c(F)cc2c1=O,> 64
4,O=C(CN1CCN(c2cc3c(cc2F)c(=O)c(C(=O)O)cn3C2CC2)CC1)Nc1nc2c(Cl)ccc(Cl)c2s1,6
5,CCn1cc(C(=O)O)c(=O)c2cc(F)c(N3CCN(CC(=O)Nc4nc5ccc(C)cc5s4)CC3)cc21,6
6,COc1c(N2CCN(CC(=O)Nc3nc4c(Cl)ccc(Cl)c4s3)C(C)C2)c(F)cc2c(=O)c(C(=O)O)cn(C3CC3)c12 (stereo not drawn),6
7,O=C(N/N=C/c1ccc([N+](=O)[O-])cc1)c1cn(C2CC2)c2cc(N3CCNCC3)c(F)cc2c1=O,> 64
8,O=C(NO)c1cn(C2CC2)c2cc(-n3cc(CN4CCNCC4)nn3)c(F)cc2c1=O,> 64
9,O=C(N/N=C/c1ccc(F)cc1)c1cn(C2CC2)c2cc(N3CCNCC3)c(F)cc2c1=O,> 64
10,Cc1ccc2nc(NC(=O)CN3CCN(c4cc5c(cc4F)c(=O)c(C(=O)O)cn5C4CC4)CC3)sc2c1,6
11,COc1c(N2CCN(CC(=O)Nc3nc4ccc([N+](=O)[O-])cc4s3)C(C)C2)c(F)cc2c(=O)c(C(=O)O)cn(C3CC3)c12 (stereo not drawn),6
12,CCn1cc(C(=O)O)c(=O)c2cc(F)c(N3CCN(CC(=O)Nc4nc5ccc([N+](=O)[O-])cc5s4)CC3)cc21,6
13,CCCN(CCC)Cc1cn(-c2cc3c(cc2F)c(=O)c(C(=O)NO)cn3C2CC2)nn1,> 64
14,CCN(CC)Cc1cn(-c2cc3c(cc2F)c(=O)c(C(=O)NO)cn3C2CC2)nn1,> 64
15,O=C(N/N=C/c1ccccc1O)c1cn(C2CC2)c2cc(N3CCNCC3)c(F)cc2c1=O,> 64
16,COc1cc(/C=N/NC(=O)c2cn(C3CC3)c3cc(N/N=C/c4cc(OC)c(OC)c(OC)c4)c(F)cc3c2=O)cc(OC)c1OC,> 64
17,O=C(NO)c1cn(C2CC2)c2cc(-n3cc(CN4CCOCC4)nn3)c(F)cc2c1=O,> 64
18,COc1c(N2CCN(CC(=O)Nc3nc4ccc(C)cc4s3)C(C)C2)c(F)cc2c(=O)c(C(=O)O)cn(C3CC3)c12 (stereo not drawn),6

# System: Escherichia coli
# Assay: Antibacterial activity against Escherichia coli assessed as bacterial growth inhibition
# Type: functional
row,SMILES,MIC [µg/mL]
1,CC1Cn2cc(C(=O)O)c(=O)c3cc(F)c(-n4ccnc4)c(c32)S1 (stereo not drawn),0.12
2,CC1Cn2cc(C(=O)O)c(=O)c3cc(F)c(N4C(C)CNCC4C)c(c32)S1 (stereo not drawn),0.12
3,CC(=O)c1cc2cc([N+](=O)[O-])ccc2n(/N=C/c2cccc([N+](=O)[O-])c2)c1=O,1.6
4,CC1Cn2cc(C(=O)O)c(=O)c3cc(F)c(N4CCN(Cc5cccc(F)c5)CC4)c(c32)S1 (stereo not drawn),0.12
5,O=C(O)c1cn2c3c(c(Cl)c(F)cc3c1=O)SC(c1ccccc1F)C2 (stereo not drawn),0.12
6,O=C(O)c1cn([C@@H]2C[C@@H]2F)c2cc(N3CCN(Cn4nc(-c5ccncc5)n(-c5ccccc5)c4=S)CC3)c(F)cc2c1=O,≤ 0.04
7,CC1Cn2cc(C(=O)O)c(=O)c3cc(F)c(N4CCN(S(=O)(=O)c5ccc(F)cc5)CC4)c(c32)S1 (stereo not drawn),0.12
8,CC1Cn2cc(C(=O)O)c(=O)c3cc(F)c(N4CCN(Cc5ccc(F)cc5F)CC4)c(c32)S1 (stereo not drawn),0.12

# System: Escherichia coli
# Assay: Antibacterial activity against Escherichia coli assessed as bacterial growth inhibition incubated for 18 hrs by twofold serial dilution assay
# Type: functional
row,SMILES,MIC [µg/mL]
1,CCn1cc(C(=O)O)c(=O)c2cc(F)c(N3CCNCC3)nc21 [ENOXACIN],0.13
2,CCn1cc(C(=O)O)c(=O)c2cc(F)c(N3CCN(CC(=O)c4ccoc4)CC3)nc21,0.049
3,O=C(O)c1cn(C2CC2)c2c(F)c(N3CCNCC(O)C3)c(F)cc2c1=O (stereo not drawn),0.25
4,O=C(O)c1cn(C2CC2)c2c(F)c(N3CCCNCC3)c(F)cc2c1=O,0.03
5,O=C(CN1CCN(c2cc3c(cc2F)c(=O)c(C(=O)O)cn3C2CC2)CC1)c1ccoc1,0.049
6,O=C(O)c1cn(C2CC2)c2nc(N3CCN(C/C(=N/OCc4ccccc4)c4ccoc4)CC3)c(F)cc2c1=O,0.049
7,O=C(O)c1cn(C2CC2)c2c(F)c(N3CCNCC(F)C3)c(F)cc2c1=O (stereo not drawn),0.03
8,CO/N=C(/CN1CCN(c2cc3c(cc2F)c(=O)c(C(=O)O)cn3C2CC2)CC1)c1cccs1,0.0075
9,CCn1cc(C(=O)O)c(=O)c2cc(F)c(N3CCN(C/C(=N/OCc4ccccc4)c4ccoc4)CC3)nc21,0.049
10,O=C(O)c1cn(C2CC2)c2cc(N3CCN(C/C(=N/O)c4ccoc4)CC3)c(F)cc2c1=O,0.049
11,CCn1cc(C(=O)O)c(=O)c2cc(F)c(N3CCN(C/C(=N/O)c4ccoc4)CC3)cc21,0.049
12,CCn1cc(C(=O)O)c(=O)c2cc(F)c(N3CCN(C/C(=N/O)c4ccoc4)CC3)nc21,0.049
13,O=C(CN1CCN(c2cc3c(cc2F)c(=O)c(C(=O)O)cn3C2CC2)CC1)c1cccs1,0.0075
14,CCn1cc(C(=O)O)c(=O)c2cc(F)c(N3CCN(C/C(=N/OCc4ccccc4)c4ccoc4)CC3)cc21,0.049

# System: Escherichia coli
# Assay: Antibacterial activity against Escherichia coli NIHJ JC-2 assessed as bacterial growth inhibition
# Type: functional
row,SMILES,MIC [µg/mL]
1,NC1CCN(c2c(Cl)c3c(c(=O)c(C(=O)O)cn3C3CC3)c3[nH]nnc23)C1 (stereo not drawn),0.025
2,CN1CCN(c2cc3c(c(=O)c(C(=O)O)cn3C3CC3)c3[nH]nnc23)CC1,0.025
3,O=C(O)c1cn(C2CC2)c2c(Cl)c(N3CCNCC3)c3nc[nH]c3c2c1=O,0.025
4,O=C(O)c1cn(C2CC2)c2cc(N3CCNCC3)c3nc[nH]c3c2c1=O,0.025
5,CN1CCN(c2c(F)c3c(c(=O)c(C(=O)O)cn3C3CC3)c3[nH]cnc23)CC1,0.025
6,NCC1CCN(c2c(F)c3c(c(=O)c(C(=O)O)cn3C3CC3)c3[nH]cnc23)C1 (stereo not drawn),0.025
7,NCC1CCN(c2c(F)c3c(c(=O)c(C(=O)O)cn3C3CC3)c3[nH]nnc23)C1 (stereo not drawn),0.025
8,CN1CCN(c2c(F)c3c(c(=O)c(C(=O)O)cn3C3CC3)c3[nH]nnc23)CC1,0.025
9,O=C(O)c1cn(C2CC2)c2c(F)c(N3CCNCC3)c3nn[nH]c3c2c1=O,0.025
10,NC1CCN(c2c(F)c3c(c(=O)c(C(=O)O)cn3C3CC3)c3[nH]cnc23)C1 (stereo not drawn),0.025
11,CN1CCN(c2c(Cl)c3c(c(=O)c(C(=O)O)cn3C3CC3)c3[nH]cnc23)CC1,0.025
12,NCC1CCN(c2cc3c(c(=O)c(C(=O)O)cn3C3CC3)c3[nH]cnc23)C1 (stereo not drawn),0.025
13,CN1CCN(c2c(Cl)c3c(c(=O)c(C(=O)O)cn3C3CC3)c3[nH]nnc23)CC1,0.025
14,C[C@@H]1CN(c2c(F)c(N)c3c(=O)c(C(=O)O)cn(C4CC4)c3c2F)C[C@H](C)N1 [SPARFLOXACIN],0.0125
15,NC1CCN(c2cc3c(c(=O)c(C(=O)O)cn3C3CC3)c3[nH]cnc23)C1 (stereo not drawn),0.025
16,NC1CCN(c2c(F)c3c(c(=O)c(C(=O)O)cn3C3CC3)c3[nH]nnc23)C1 (stereo not drawn),0.025
17,O=C(O)c1cn(C2CC2)c2c(F)c(N3CCNCC3)c3nc[nH]c3c2c1=O,0.025
18,NC1CCN(c2c(Cl)c3c(c(=O)c(C(=O)O)cn3C3CC3)c3[nH]cnc23)C1 (stereo not drawn),0.025
19,CN1CCN(c2cc3c(c(=O)c(C(=O)O)cn3C3CC3)c3[nH]cnc23)CC1,0.025
